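All cell lines were grown in 96-well plates and treated with compound for 48 hours. TGI is the concentration that stops growth completely.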
Assays:
Test in all cases: NCI-60 cell line screen, 48 h
HCC-2998 colon = test system: HCC-2998 colon
SK-MEL-5 melanoma = test system: SK-MEL-5 melanoma
MCF7 breast = test system: MCF7 breast
PC-3 prostate = test system: PC-3 prostate
HOP-62 NSCLC = test system: HOP-62 NSCLC
786-0 renal = test system: 786-0 renal
LOX IMVI melanoma = test system: LOX IMVI melanoma
EKVX NSCLC = test system: EKVX NSCLC
TK-10 renal = test system: TK-10 renal
HCT-15 colon = test system: HCT-15 colon
SF-268 CNS = test system: SF-268 CNS
HT29 colon = test system: HT29 colon
SR leukemia = test system: SR leukemia
SK-MEL-2 melanoma = test system: SK-MEL-2 melanoma
MDA-N = test system: MDA-N
MOLT-4 leukemia = test system: MOLT-4 leukemia
MALME-3M melanoma = test system: MALME-3M melanoma
RXF 393 renal = test system: RXF 393 renal
T-47D breast = test system: T-47D breast
A549 NSCLC = test system: A549 NSCLC
HOP-92 NSCLC = test system: HOP-92 NSCLC
CCRF-CEM leukemia = test system: CCRF-CEM leukemia
K-562 leukemia = test system: K-562 leukemia
HS 578T breast = test system: HS 578T breast
MDA-MB-435 = test system: MDA-MB-435
CAKI-1 renal = test system: CAKI-1 renal
SK-MEL-28 melanoma = test system: SK-MEL-28 melanoma
DU-145 prostate = test system: DU-145 prostate
NCI-H226 lung = test system: NCI-H226 lung
U251 CNS = test system: U251 CNS
KM12 colon = test system: KM12 colon
SNB-19 CNS = test system: SNB-19 CNS
HCT-116 colon = test system: HCT-116 colon
IGROV1 ovarian = test system: IGROV1 ovarian
OVCAR-5 ovarian = test system: OVCAR-5 ovarian
NCI-H522 lung = test system: NCI-H522 lung
UACC-257 melanoma = test system: UACC-257 melanoma
NCI/ADR-RES ovarian = test system: NCI/ADR-RES ovarian
NCI-H460 lung = test system: NCI-H460 lung
SF-295 CNS = test system: SF-295 CNS
NCI-H23 lung = test system: NCI-H23 lung
M14 melanoma = test system: M14 melanoma
COLO 205 colon = test system: COLO 205 colon
OVCAR-3 ovarian = test system: OVCAR-3 ovarian
MDA-MB-231 breast = test system: MDA-MB-231 breast
OVCAR-8 ovarian = test system: OVCAR-8 ovarian
SN12C renal = test system: SN12C renal
UO-31 renal = test system: UO-31 renal
SNB-75 CNS = test system: SNB-75 CNS
ACHN renal = test system: ACHN renal
HL-60(TB) leukemia = test system: HL-60(TB) leukemia
UACC-62 melanoma = test system: UACC-62 melanoma
SW-620 colon = test system: SW-620 colon
SK-OV-3 ovarian = test system: SK-OV-3 ovarian
A498 renal = test system: A498 renal
BT-549 breast = test system: BT-549 breast
SF-539 CNS = test system: SF-539 CNS
RPMI-8226 leukemia = test system: RPMI-8226 leukemia
OVCAR-4 ovarian = test system: OVCAR-4 ovarian

Question: What does the source list for `O=Cc1ccc(-c2nccc3c2[nH]c2ccccc23)o1`?
Answer: TGI (HCC-2998 colon): > 100 µM; TGI (SK-MEL-5 melanoma): > 100 µM; TGI (MCF7 breast): > 100 µM; TGI (PC-3 prostate): > 100 µM; TGI (HOP-62 NSCLC): > 100 µM; TGI (786-0 renal): > 100 µM; TGI (LOX IMVI melanoma): > 56.2 µM; TGI (EKVX NSCLC): > 100 µM; TGI (TK-10 renal): > 100 µM; TGI (HCT-15 colon): > 100 µM; TGI (SF-268 CNS): > 100 µM; TGI (HT29 colon): > 100 µM; TGI (SR leukemia): > 100 µM; TGI (SK-MEL-2 melanoma): > 100 µM; TGI (MDA-N): > 100 µM; TGI (MOLT-4 leukemia): > 100 µM; TGI (MALME-3M melanoma): > 100 µM; TGI (RXF 393 renal): > 81.9 µM; TGI (T-47D breast): > 100 µM; TGI (A549 NSCLC): > 100 µM; TGI (HOP-92 NSCLC): 98.6 µM; TGI (CCRF-CEM leukemia): > 100 µM; TGI (K-562 leukemia): > 100 µM; TGI (HS 578T breast): > 100 µM; TGI (MDA-MB-435): > 100 µM; TGI (CAKI-1 renal): 41.4 µM; TGI (SK-MEL-28 melanoma): > 100 µM; TGI (DU-145 prostate): > 100 µM; TGI (NCI-H226 lung): 9.86 µM; TGI (U251 CNS): > 100 µM; TGI (KM12 colon): > 100 µM; TGI (SNB-19 CNS): > 100 µM; TGI (HCT-116 colon): > 100 µM; TGI (IGROV1 ovarian): > 100 µM; TGI (OVCAR-5 ovarian): > 100 µM; TGI (NCI-H522 lung): > 100 µM; TGI (UACC-257 melanoma): > 55.9 µM; TGI (NCI/ADR-RES ovarian): > 100 µM; TGI (NCI-H460 lung): > 100 µM; TGI (SF-295 CNS): 51.2 µM; TGI (NCI-H23 lung): > 100 µM; TGI (M14 melanoma): > 100 µM; TGI (COLO 205 colon): > 100 µM; TGI (OVCAR-3 ovarian): > 100 µM; TGI (MDA-MB-231 breast): > 100 µM; TGI (OVCAR-8 ovarian): > 100 µM; TGI (SN12C renal): > 100 µM; TGI (UO-31 renal): > 100 µM; TGI (SNB-75 CNS): > 100 µM; TGI (ACHN renal): > 100 µM; TGI (HL-60(TB) leukemia): > 100 µM; TGI (UACC-62 melanoma): > 100 µM; TGI (SW-620 colon): > 100 µM; TGI (SK-OV-3 ovarian): > 100 µM; TGI (A498 renal): 1.46 µM; TGI (BT-549 breast): > 100 µM; TGI (SF-539 CNS): > 100 µM; TGI (RPMI-8226 leukemia): > 100 µM; TGI (OVCAR-4 ovarian): > 100 µM

Question: Which TGI (HCC-2998 colon) does the source give for `O=S(=O)(O)c1ccc2c(N=Nc3cccc4ccccc34)c(O)c(S(=O)(=O)O)cc2c1` here?
Answer: > 100 µM

Question: What about the TGI (SK-MEL-5 melanoma) of the same molecule?
Answer: > 100 µM

Question: What about the TGI (MCF7 breast) of the same molecule?
Answer: > 100 µM

Question: And the TGI (PC-3 prostate)?
Answer: > 100 µM

Question: What about the TGI (HOP-62 NSCLC) of the same molecule?
Answer: > 100 µM

Question: And the TGI (786-0 renal)?
Answer: > 100 µM

Question: What about the TGI (LOX IMVI melanoma) of the same molecule?
Answer: > 100 µM

Question: What about the TGI (EKVX NSCLC) of the same molecule?
Answer: > 100 µM

Question: And the TGI (TK-10 renal)?
Answer: > 100 µM

Question: What about the TGI (HCT-15 colon) of the same molecule?
Answer: > 100 µM

Question: What about the TGI (SF-268 CNS) of the same molecule?
Answer: > 100 µM

Question: And the TGI (HT29 colon)?
Answer: > 100 µM

Question: And the TGI (SR leukemia)?
Answer: > 100 µM

Question: What about the TGI (SK-MEL-2 melanoma) of the same molecule?
Answer: > 100 µM

Question: And the TGI (MDA-N)?
Answer: > 100 µM

Question: What about the TGI (MOLT-4 leukemia) of the same molecule?
Answer: > 100 µM

Question: And the TGI (MALME-3M melanoma)?
Answer: > 100 µM

Question: And the TGI (RXF 393 renal)?
Answer: > 100 µM

Question: And the TGI (T-47D breast)?
Answer: > 100 µM

Question: And the TGI (A549 NSCLC)?
Answer: > 100 µM

Question: What about the TGI (HOP-92 NSCLC) of the same molecule?
Answer: > 100 µM

Question: And the TGI (CCRF-CEM leukemia)?
Answer: > 100 µM

Question: And the TGI (K-562 leukemia)?
Answer: > 100 µM

Question: What about the TGI (HS 578T breast) of the same molecule?
Answer: > 100 µM

Question: And the TGI (MDA-MB-435)?
Answer: > 100 µM

Question: And the TGI (CAKI-1 renal)?
Answer: > 100 µM

Question: What about the TGI (SK-MEL-28 melanoma) of the same molecule?
Answer: > 100 µM

Question: What about the TGI (DU-145 prostate) of the same molecule?
Answer: > 100 µM

Question: What about the TGI (NCI-H226 lung) of the same molecule?
Answer: > 100 µM

Question: And the TGI (U251 CNS)?
Answer: > 100 µM

Question: What about the TGI (KM12 colon) of the same molecule?
Answer: > 100 µM

Question: And the TGI (SNB-19 CNS)?
Answer: > 100 µM

Question: And the TGI (HCT-116 colon)?
Answer: > 100 µM

Question: And the TGI (IGROV1 ovarian)?
Answer: > 100 µM

Question: What about the TGI (OVCAR-5 ovarian) of the same molecule?
Answer: > 100 µM

Question: And the TGI (NCI-H522 lung)?
Answer: > 100 µM

Question: What about the TGI (UACC-257 melanoma) of the same molecule?
Answer: > 100 µM

Question: And the TGI (NCI/ADR-RES ovarian)?
Answer: > 100 µM

Question: What about the TGI (NCI-H460 lung) of the same molecule?
Answer: > 100 µM

Question: What about the TGI (SF-295 CNS) of the same molecule?
Answer: > 100 µM

Question: What about the TGI (NCI-H23 lung) of the same molecule?
Answer: > 100 µM

Question: What about the TGI (M14 melanoma) of the same molecule?
Answer: > 100 µM

Question: What about the TGI (COLO 205 colon) of the same molecule?
Answer: > 100 µM

Question: And the TGI (OVCAR-3 ovarian)?
Answer: > 100 µM

Question: And the TGI (MDA-MB-231 breast)?
Answer: > 100 µM

Question: What about the TGI (OVCAR-8 ovarian) of the same molecule?
Answer: > 100 µM

Question: What about the TGI (SN12C renal) of the same molecule?
Answer: > 100 µM

Question: And the TGI (UO-31 renal)?
Answer: > 100 µM

Question: And the TGI (SNB-75 CNS)?
Answer: > 100 µM

Question: And the TGI (ACHN renal)?
Answer: > 100 µM

Question: And the TGI (HL-60(TB) leukemia)?
Answer: > 100 µM

Question: And the TGI (UACC-62 melanoma)?
Answer: > 100 µM

Question: And the TGI (SW-620 colon)?
Answer: > 100 µM

Question: What about the TGI (SK-OV-3 ovarian) of the same molecule?
Answer: > 100 µM

Question: What about the TGI (A498 renal) of the same molecule?
Answer: > 100 µM

Question: And the TGI (BT-549 breast)?
Answer: > 100 µM

Question: And the TGI (SF-539 CNS)?
Answer: > 100 µM

Question: And the TGI (RPMI-8226 leukemia)?
Answer: > 100 µM

Question: What about the TGI (OVCAR-4 ovarian) of the same molecule?
Answer: > 100 µM

Source: PubChem BioAssay (NCI)
